{"source": "paper PMC7766159", "about": "“Novel Psychoactive Phenethylamines: Impact on Genetic Material” (International Journal of Molecular Sciences, 2020)", "origin": "cited, not measured here", "system": "primary rat hepatocyte", "design": "method as in PMID 31468101", "settings": "after 24 h; cited from earlier work", "data": [{"smiles": "CNC(C)C(=O)c1cccc(C)c1", "note": "(stereo not shown) [Metaphedrone, 3-methylmethcathinone]", "values": [{"measurement": "concentration mediating oxidative stress", "value": 10, "unit": "µM"}]}]}
